# Measured values taken from the supplement of paper PMC4862054.
# Key:
# Conditions in all cases: incubation time: 72 h
# DU-4475 [1] = test: normalised viability (% of control), CellTiter-Blue; higher = more viable cells (about 100 = DMSO control)
# Method: (§1)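 DSRT, CellTiter-Blue viability, 72 h incubation. Signal is normalised to DMSO and benzethonium chloride controls. Value is the normalised response at dose 6.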
# CAL-51 [2] = test: as above
# Method: as §1
# MDA-MB-453 [3] = test: as above
# Method: as §1
# HDQ-P1 [4] = test: as above
# Method: as §1
# CAL-85-1 [5] = test: as above
# Method: as §1
# CAL-148 [6] = test: as above
# Method: as §1
# DU-4475 [7] = test: normalised response (% of control), CellTiter-Glo; higher = more viable cells (100 = DMSO, 0 = benzethonium chloride kill control)
# Method: (§2)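 DSRT, 72 h incubation, CellTox Green / CellTiter-Glo readout. Signal is normalised to DMSO and benzethonium chloride controls. Value is the normalised response at the highest dose.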
# HCC1599 [8] = test: as above
# Method: as §2
# CAL-51 [9] = test: as above
# Method: as §2
# Hs578T [10] = test: as above
# Method: as §2
# MDA-MB-468 [11] = test: as above
# Method: as §2
# MDA-MB-453 [12] = test: as above
# Method: as §2
# HDQ-P1 [13] = test: as above
# Method: as §2
# MDA-MB-231 [14] = test: as above
# Method: as §2
# MDA-MB-436 [15] = test: as above
# Method: as §2
# BT-474 [16] = test: as above
# Method: as §2
# HCC1937 [17] = test: as above
# Method: as §2
# MCF-10A [18] = test: as above
# Method: as §2
# SK-BR-3 = test: as above
# Method: as §2
# CAL-85-1 [19] = test: as above
# Method: as §2
# CAL-120 [20] = test: as above
# Method: as §2
# CAL-148 [21] = test: as above
# Method: as §2
# MFM-223 [22] = test: as above
# Method: as §2
# HCC1143 [23] = test: as above
# Method: as §2
# BT-549 [24] = test: as above
# Method: as §2
# DU-4475 [25] = test: normalised response (% of control), CellTox Green; higher = less cell death (100 = DMSO, 0 = benzethonium chloride kill control)
# Outline: (§3)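 Compound was dispensed into 384-well plates at 5 concentrations in 10-fold steps spanning a 10,000-fold range specific to that compound. Breast cancer cell lines were added as 20 µl suspension and left for 72 h before CellTox Green fluorescence (485/520 nm) and then CellTiter-Glo luminescence, read after 10 min at room temperature. Each reported value is the normalised signal at one concentration, with 0.1 % DMSO set at 100 and a positive kill control at 0 on each plate.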
# HCC1599 [26] = test: as above
# Outline: as §3
# CAL-51 [27] = test: as above
# Outline: as §3
# Hs578T [28] = test: as above
# Outline: as §3
# MDA-MB-468 [29] = test: as above
# Outline: as §3
# MDA-MB-453 [30] = test: as above
# Outline: as §3
# HDQ-P1 [31] = test: as above
# Outline: as §3
# MDA-MB-231 [32] = test: as above
# Outline: as §3
# MDA-MB-436 [33] = test: as above
# Outline: as §3
# BT-474 [34] = test: as above
# Outline: as §3
# HCC1937 [35] = test: as above
# Outline: as §3
# MCF-10A [36] = test: as above
# Outline: as §3
# CAL-85-1 [37] = test: as above
# Outline: as §3
# CAL-120 [38] = test: as above
# Outline: as §3
# CAL-148 [39] = test: as above
# Outline: as §3
# MFM-223 [40] = test: as above
# Outline: as §3
# HCC1143 [41] = test: as above
# Outline: as §3
# BT-549 [42] = test: as above
# Outline: as §3
compound,measurement,setting,value
NC(=O)c1ccc(I)c([N+](=O)[O-])c1 [Iniparib] (300 nM),normalised viability,DU-4475 [1],84%
same,normalised viability,CAL-51 [2],98.7%
same,normalised viability,MDA-MB-453 [3],95.2%
same,normalised viability,HDQ-P1 [4],87.2%
same,normalised viability,CAL-85-1 [5],88.8%
same,normalised viability,CAL-148 [6],89.2%
COc1cc(OC2CCN(C)CC2)ccc1Nc1ncc2c(n1)n(C1CCCC1)c(=O)n2C [AZ 3146] (300 nM),normalised viability,DU-4475 [1],115%
same,normalised viability,CAL-51 [2],87.6%
same,normalised viability,MDA-MB-453 [3],97.2%
same,normalised viability,HDQ-P1 [4],76.6%
same,normalised viability,CAL-85-1 [5],109%
same,normalised viability,CAL-148 [6],115%
Cc1cc(Nc2cc(CN3CCOCC3)c3nc(C)c(Cc4ccc(Cl)cc4F)n3n2)n[nH]1 [Gandotinib] (10000 nM),normalised response,DU-4475 [7],72.3%
same,normalised response,HCC1599 [8],75.9%
same,normalised response,CAL-51 [9],26%
same,normalised response,Hs578T [10],7.38%
same,normalised response,MDA-MB-468 [11],28.5%
same,normalised response,MDA-MB-453 [12],120%
same,normalised response,HDQ-P1 [13],39.4%
same,normalised response,MDA-MB-231 [14],27.9%
same,normalised response,MDA-MB-436 [15],49%
same,normalised response,BT-474 [16],44.5%
same,normalised response,HCC1937 [17],64.2%
same,normalised response,MCF-10A [18],41.2%
same,normalised response,SK-BR-3,50.8%
same,normalised response,CAL-85-1 [19],58.8%
same,normalised response,CAL-120 [20],27.9%
same,normalised response,CAL-148 [21],96.7%
same,normalised response,MFM-223 [22],59.8%
same,normalised response,HCC1143 [23],51.7%
same,normalised response,BT-549 [24],14.2%
same,normalised response,DU-4475 [25],103%
same,normalised response,HCC1599 [26],92%
same,normalised response,CAL-51 [27],24%
same,normalised response,Hs578T [28],-107%
same,normalised response,MDA-MB-468 [29],11.5%
same,normalised response,MDA-MB-453 [30],88.8%
same,normalised response,HDQ-P1 [31],102%
same,normalised response,MDA-MB-231 [32],67.7%
same,normalised response,MDA-MB-436 [33],82%
same,normalised response,BT-474 [34],80.9%
same,normalised response,HCC1937 [35],101%
same,normalised response,MCF-10A [36],58.1%
same,normalised response,CAL-85-1 [37],51.3%
same,normalised response,CAL-120 [38],59.9%
same,normalised response,CAL-148 [39],69.7%
same,normalised response,MFM-223 [40],76%
same,normalised response,HCC1143 [41],100%
same,normalised response,BT-549 [42],83.8%
CCOC(=O)CCNc1cc(N2CCc3ccccc3CC2)nc(-c2ccccn2)n1 [GSK-J4] (100000 nM),normalised response,DU-4475 [7],0.52%
same,normalised response,HCC1599 [8],-0.22%
same,normalised response,CAL-51 [9],0.09%
same,normalised response,Hs578T [10],0.22%
same,normalised response,MDA-MB-468 [11],0.05%
same,normalised response,MDA-MB-453 [12],-0.16%
same,normalised response,HDQ-P1 [13],1.14%
same,normalised response,MDA-MB-231 [14],0.03%
same,normalised response,MDA-MB-436 [15],0.01%
same,normalised response,BT-474 [16],0.77%
same,normalised response,HCC1937 [17],0.08%
same,normalised response,MCF-10A [18],0.14%
same,normalised response,SK-BR-3,-0.42%
same,normalised response,CAL-85-1 [19],0.22%
same,normalised response,CAL-120 [20],0.19%
same,normalised response,CAL-148 [21],0.06%
same,normalised response,MFM-223 [22],-0.08%
same,normalised response,HCC1143 [23],-0.1%
same,normalised response,BT-549 [24],0.26%
same,normalised response,DU-4475 [25],79.7%
same,normalised response,HCC1599 [26],70.9%
same,normalised response,CAL-51 [27],-10.9%
same,normalised response,Hs578T [28],-146%
same,normalised response,MDA-MB-468 [29],-155%
same,normalised response,MDA-MB-453 [30],2.15%
same,normalised response,HDQ-P1 [31],-15.5%
same,normalised response,MDA-MB-231 [32],-38.5%
same,normalised response,MDA-MB-436 [33],-10.7%
same,normalised response,BT-474 [34],-13.6%
same,normalised response,HCC1937 [35],-33.8%
same,normalised response,MCF-10A [36],-83.7%
same,normalised response,CAL-85-1 [37],-35.9%
same,normalised response,CAL-120 [38],-21.8%
same,normalised response,CAL-148 [39],3.2%
same,normalised response,MFM-223 [40],-2.28%
same,normalised response,HCC1143 [41],24.1%
same,normalised response,BT-549 [42],-16.3%
